Test results taken from patent US20210379040A1, “COMBINATION TREATMENT OF LIVER DISORDERS” (Terns Pharmaceuticals, Inc., priority 2020, published 2021).
Marks after values point to notes of the source that are not given here.

Legend:
MAO-B = target: T1, MAO-B (Homo sapiens, UniProt P27338); experiment: Biochemical activity, MAO-B
T1 sequence (P27338 1-520): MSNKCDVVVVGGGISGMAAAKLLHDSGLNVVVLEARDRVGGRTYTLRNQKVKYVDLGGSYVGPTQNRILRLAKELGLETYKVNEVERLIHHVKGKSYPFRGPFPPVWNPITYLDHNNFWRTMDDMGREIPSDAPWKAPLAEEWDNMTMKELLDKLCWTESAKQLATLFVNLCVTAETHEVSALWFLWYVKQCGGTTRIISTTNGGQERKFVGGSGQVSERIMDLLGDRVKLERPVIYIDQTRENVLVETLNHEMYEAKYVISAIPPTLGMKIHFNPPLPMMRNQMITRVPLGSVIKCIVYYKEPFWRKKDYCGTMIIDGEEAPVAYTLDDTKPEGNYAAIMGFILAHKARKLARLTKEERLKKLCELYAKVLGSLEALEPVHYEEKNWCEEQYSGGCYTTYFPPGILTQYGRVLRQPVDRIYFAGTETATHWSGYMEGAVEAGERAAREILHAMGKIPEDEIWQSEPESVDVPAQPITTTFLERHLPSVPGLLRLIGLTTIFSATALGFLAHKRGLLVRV

plasma SSAO = target: T2, plasma SSAO (Homo sapiens, UniProt Q16853); experiment: Multiple once daily dose study: plasma amine oxidase activity and methylamine; type: in vivo
T2 construct: from tissue; host or cells: plasma of healthy participants
T2 sequence (Q16853 27-763 limits assumed): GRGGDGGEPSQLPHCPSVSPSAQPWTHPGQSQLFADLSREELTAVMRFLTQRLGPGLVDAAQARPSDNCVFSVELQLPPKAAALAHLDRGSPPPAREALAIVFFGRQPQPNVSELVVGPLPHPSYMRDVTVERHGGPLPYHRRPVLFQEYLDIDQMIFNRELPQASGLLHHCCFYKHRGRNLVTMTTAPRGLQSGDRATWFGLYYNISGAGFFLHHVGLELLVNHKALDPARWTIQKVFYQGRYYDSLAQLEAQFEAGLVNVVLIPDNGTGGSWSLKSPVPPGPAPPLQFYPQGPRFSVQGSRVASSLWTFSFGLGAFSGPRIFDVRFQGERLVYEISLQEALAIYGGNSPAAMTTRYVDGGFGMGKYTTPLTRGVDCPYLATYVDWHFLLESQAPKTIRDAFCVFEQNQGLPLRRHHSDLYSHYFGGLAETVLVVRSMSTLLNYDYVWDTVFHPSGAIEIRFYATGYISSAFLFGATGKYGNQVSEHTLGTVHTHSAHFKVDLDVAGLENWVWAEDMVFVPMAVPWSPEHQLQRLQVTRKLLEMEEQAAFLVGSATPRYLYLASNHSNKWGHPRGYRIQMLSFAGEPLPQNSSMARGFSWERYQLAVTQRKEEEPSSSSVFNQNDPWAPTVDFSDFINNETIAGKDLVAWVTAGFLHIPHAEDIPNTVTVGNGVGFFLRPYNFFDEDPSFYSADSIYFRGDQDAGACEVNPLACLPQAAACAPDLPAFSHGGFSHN
Method: 3 groups of 8 healthy participants were randomized to receive multiple once daily (QD) doses of Compound 2 or matching placebo in a 3:1 ratio for 7 days (1 mg and 4 mg) or 14 days (10 mg). Plasma levels of Compound 2 and PD biomarkers (plasma amine oxidase activity and methylamine levels) were determined at pre-dose and various timepoints post-dose. Safety was assessed for up to 14 days after last dose.

[1] = system: liver gene expression (lipid metabolism and fatty acid transport genes); experiment: Rat CDHFD+NaNO2 NASH model: liver whole transcriptome RNAseq (DEGs); type: in vivo, male Wistar rats; conditions: Compound 2 25 mg/kg, Compound 1 3 mg/kg
Method: Animal handling: After arrival, the rats were left for a 2-week acclimation period, during which they were accustomed to the animal facility staff and trained on the procedure of oral gavage. […] Rats were then treated with test compounds for an additional 8 weeks while on CDHFD. […] Final Sacrifice: Half of the animals of each treatment group were terminated on day 84. The other half of the animals in each group were terminated on the following day, day 85. On the day of sacrifice the animals were fasted for 2 hours and received a final treatment with the respective test substance. After the final compound treatment, the animals had no more access to food until sacrifice. At 4 hours after the last administration all animals were sacrificed and livers were sampled for further analysis. Sampling and analysis: Small liver pieces were harvested into RNAlater (Thermo Fisher Scientific Dreieich Germany) and stored at −20° C. prior to RNA sequencing (RNAseq) at MedGenome Inc. RNAseq analysis was performed on liver tissue by Illumina sequencing using standard methodologies. […] Alignment was performed using STAR (v2.7.3a) aligner and reads mapping to ribosomal and mitochondrial genome were removed prior to alignment. Raw read counts were estimated using HTSeq (v0.11.1) and normalized using DESeq2 (v2.22.2). Differentially expressed genes (DEGs) were determined using DESeq2 (R Bioconductor package). […]

dog hepatocytes = experiment: In vitro metabolic stability in cryopreserved hepatocytes (dog); type: in vitro ADME; conditions: Beagle Dog
Method: (§1) In vitro half-life values were determined and scaled to predict hepatic clearance (CLpred) and hepatic extraction using the well-stirred liver model with no correction for plasma protein as described in Obach et al., The Prediction of Human Pharmacokinetic Parameters from Preclinical and In Vitro Metabolism Data, J. of Pharmacology and Experimental Therapeutics, vol. 283, no. 1, pp. 46-58 (1997).

monkey hepatocytes = experiment: In vitro metabolic stability in cryopreserved hepatocytes (monkey); type: in vitro ADME; conditions: Cynomolgus Monkey
Method: as §1

[2] = Pharmacokinetics assay, dog; type: in vivo, beagle dogs; conditions: plasma, iv, Beagle Dog, intravenously 1 mg/kg
Description: Results are shown in FIG. 1A (IV administration) and FIG. 1B (oral administration), and in Table 2. […] Smaller Vdss in monkeys is correlated with higher plasma protein binding.

[3] = Metabolism and excretion of radiolabeled (14C) compound; type: in vivo; conditions: SD rats, bile duct intact or cannulated, orally 5 mg/kg or intravenously 2 mg/kg
Method: Blood, bile, feces, and urine samples were collected from each rat for up to 168 hours.

COC1CCN(c2ncc(OC/C(=C/F)CN)cn2)CC1 [Compound 2]
IC50 (MAO-B): > 50 µM | duration of continued suppression of plasma SSAO activity after last dose (plasma SSAO; 10 mg cohort (QD, 14 days)): up to 2 weeks | inhibition of plasma SSAO activity (plasma SSAO; Day 1, all dose cohorts): Near complete inhibition | Plasma methylamine levels (plasma SSAO; QD 1, 4, 10 mg): increased in a greater than dose proportional manner | Ppargc1a differential gene expression relative to vehicle control [1]: 0.51* log2-fold change

Cn1cc(C(=O)O)c2ccc(N3CCC(OCc4c(-c5c(Cl)cccc5Cl)noc4C4CC4)CC3)cc21 [Compound 1]
Hepatic Extraction (dog hepatocytes): 71.0 ± 2.49% | In vitro Metabolic CLpred (dog hepatocytes; well-stirred liver model): 22 ± 0.83 mL/min/kg | Hepatic Extraction (monkey hepatocytes): 64.4 ± 0.28% | In vitro Metabolic CLpred (monkey hepatocytes; well-stirred liver model): 28 ± 0.17 mL/min/kg | half-life ([2]; read-out: IV Terminal t1/2 (converted)): 5.67 h | Vd ([2]; read-out: Vdss): 1.92 L/kg | metabolism and major elimination pathway [3]: metabolized into an acyl glucuronide metabolite prior to biliary excretion | Ppargc1a differential gene expression relative to vehicle control [1]: 0.25 log2-fold change
